Measured values from PubChem BioAssay AID256 (DTP/NCI, 2004).
Values joined by “and” are separate entries in the source; they are usually repeats but may differ in a detail not shown here. Equal entries are not always repeated. Toxic doses and inconclusive results are not listed. How the source made its calls: active means survival T/C of 150% or more; inactive means T/C below 125% in these data.

System: CD2F1 mice, L1210 leukemia ip, survival T/C
Assay: NCI In Vivo Anticancer Drug Screen. Data for tumor model L1210 Leukemia (intraperitoneal) in CD2F1 (CDF1) mice
Conditions: higher = longer survival
How it was run: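 Transplantable tumor in mice; compound-treated vs vehicle-treated groups. Read-out = treated/control ratio of the measured endpoint.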

[1] = endpoint: mean survival time, dose: 10.0 mg/kg/injection, schedule: Q04DX003 (ip), vehicle: saline with Tween-80
[2] = endpoint: mean survival time, dose: 20.0 mg/kg/injection, schedule: Q04DX003 (ip), vehicle: saline with Tween-80
[3] = endpoint: mean survival time, dose: 100.0 mg/kg/injection, schedule: Q01DX001 (ip), vehicle: saline with Tween-80
[4] = endpoint: mean survival time, dose: 200.0 mg/kg/injection, schedule: Q01DX001 (ip), vehicle: saline with Tween-80
[5] = endpoint: mean survival time, dose: 400.0 mg/kg/injection, schedule: Q01DX001 (ip), vehicle: saline with Tween-80
[6] = endpoint: mean survival time, dose: 75.0 mg/kg/injection, schedule: Q01DX001 (ip), vehicle: saline
[7] = endpoint: mean survival time, dose: 150.0 mg/kg/injection, schedule: Q01DX001 (ip), vehicle: saline
[8] = endpoint: mean survival time, dose: 100.0 mg/kg/injection, schedule: Q01DX001 (ip), vehicle: saline
[9] = endpoint: mean survival time, dose: 200.0 mg/kg/injection, schedule: Q01DX001 (ip), vehicle: saline
[10] = endpoint: mean survival time, dose: 50.0 mg/kg/injection, schedule: Q01DX009 (ip), vehicle: saline with Tween-80
[11] = endpoint: mean survival time, dose: 100.0 mg/kg/injection, schedule: Q01DX009 (ip), vehicle: saline with Tween-80
[12] = endpoint: mean survival time, dose: 200.0 mg/kg/injection, schedule: Q01DX009 (ip), vehicle: saline with Tween-80
[13] = endpoint: mean survival time, dose: 25.0 mg/kg/injection, schedule: Q01DX009 (ip), vehicle: saline with Tween-80
[14] = endpoint: mean survival time, dose: 50.0 mg/kg/injection, schedule: Q01DX009 (ip), vehicle: Klucel (hydroxypropylcellulose) (HPC)
[15] = endpoint: mean survival time, dose: 100.0 mg/kg/injection, schedule: Q01DX009 (ip), vehicle: Klucel (hydroxypropylcellulose) (HPC)
[16] = endpoint: mean survival time, dose: 200.0 mg/kg/injection, schedule: Q01DX009 (ip), vehicle: Klucel (hydroxypropylcellulose) (HPC)
[17] = endpoint: mean survival time, dose: 200.0 mg/kg/injection, schedule: Q04DX003 (ip), vehicle: saline with Tween-80
[18] = endpoint: mean survival time, dose: 400.0 mg/kg/injection, schedule: Q01DX009 (ip), vehicle: saline with Tween-80

Measured: T/C

N#C[S-].N#C[S-].[NH-]CC[NH-].[Pt+4]
inactive: [1] 97 % of control | [2] 98 % of control | endpoint: mean survival time, dose: 40.0 mg/kg/injection, schedule: Q04DX003 (ip), vehicle: saline with Tween-80 106 % of control

CSc1nc(NC2OC(CO)C(O)C(O)C2O)cc(=O)[nH]1 (configuration not stated)
inactive: endpoint: median survival time, dose: 12.5 mg/kg/injection, schedule: Q01DX005 (ip), vehicle: saline 102 % of control | endpoint: median survival time, dose: 25.0 mg/kg/injection, schedule: Q01DX005 (ip), vehicle: saline 100 % of control | endpoint: median survival time, dose: 50.0 mg/kg/injection, schedule: Q01DX005 (ip), vehicle: saline 100 % of control | endpoint: median survival time, dose: 100.0 mg/kg/injection, schedule: Q01DX005 (ip), vehicle: saline 100 % of control | endpoint: median survival time, dose: 200.0 mg/kg/injection, schedule: Q01DX005 (ip), vehicle: saline 102 % of control

O=C(/C=C(/Nc1ccccc1)c1ccccc1)c1ccccc1
inactive: [3] 90 % of control | [4] 92 % of control | [5] 86 % of control

CN(C)C(=O)C1C2CCCC(CC2)C1C(=O)N(C)C (configuration not stated)
inactive: endpoint: mean survival time, dose: 100.0 mg/kg/injection, schedule: Q04DX002 (ip), vehicle: saline 100 % of control | endpoint: mean survival time, dose: 200.0 mg/kg/injection, schedule: Q04DX002 (ip), vehicle: saline 91 % of control | endpoint: mean survival time, dose: 400.0 mg/kg/injection, schedule: Q04DX002 (ip), vehicle: saline 95 % of control

CC1(C2CC(=O)N(OCc3ccccc3)C2=O)OCCO1 (configuration not stated)
inactive: endpoint: mean survival time, dose: 100.0 mg/kg/injection, schedule: Q04DX003 (ip), vehicle: other 89 % of control | endpoint: mean survival time, dose: 200.0 mg/kg/injection, schedule: Q04DX003 (ip), vehicle: other 87 % of control | endpoint: mean survival time, dose: 400.0 mg/kg/injection, schedule: Q04DX003 (ip), vehicle: other 88 % of control

CC(C)c1cc(O)c(C(C)C)cc1O
inactive: [6] 104 % of control | [7] 111 % of control

COc1ccc(Cc2cncc3cc(OC)c(OC)cc23)cc1OC
inactive: [8] 101 % of control | [9] 96 % of control

CCCN(CCC)S(=O)(=O)c1ccc(NC(=O)OC2CCCC2)cc1
inactive: [8] 104 % of control | [9] 106 % of control | endpoint: mean survival time, dose: 400.0 mg/kg/injection, schedule: Q01DX001 (ip), vehicle: saline 105 % of control

O=S(=O)(OC(Cc1ccccc1)Cc1ccccc1)c1ccc(Br)cc1
inactive: [10] 95 % of control | [11] 91 % of control | [12] 95 % of control

[Cl][Pt+2][Cl].[NH-]C(C(=O)O)c1ccccc1.[NH-]C(C(=O)O)c1ccccc1 (configuration not stated)
inactive: endpoint: median survival time, dose: 3.12 mg/kg/injection, schedule: Q04DX003 (ip), vehicle: saline 103 % of control | endpoint: median survival time, dose: 6.25 mg/kg/injection, schedule: Q04DX003 (ip), vehicle: saline 103 % of control | endpoint: median survival time, dose: 12.5 mg/kg/injection, schedule: Q04DX003 (ip), vehicle: saline 100 % of control | endpoint: median survival time, dose: 25.0 mg/kg/injection, schedule: Q04DX003 (ip), vehicle: saline 107 % of control | endpoint: median survival time, dose: 50.0 mg/kg/injection, schedule: Q04DX003 (ip), vehicle: saline 101 % of control | endpoint: median survival time, dose: 100.0 mg/kg/injection, schedule: Q04DX003 (ip), vehicle: saline 123 % of control

COc1ccc(SC(=O)N(C)C)cc1
inactive: [13] 100 % of control | [10] 103 % of control | [11] 95 % of control and 98 % of control

COC1=C(N=[N+]=[N-])C(=O)C(OC)=C(N=[N+]=[N-])C1=O
inactive: endpoint: mean survival time, dose: 5.0 mg/kg/injection, schedule: Q01DX009 (ip), vehicle: saline with Tween-80 101 % of control | endpoint: mean survival time, dose: 5.0 mg/kg/injection, schedule: Q04DX003 (ip), vehicle: saline with Tween-80 93 % of control | endpoint: mean survival time, dose: 10.0 mg/kg/injection, schedule: Q01DX009 (ip), vehicle: saline with Tween-80 94 % of control | [1] 95 % of control | endpoint: mean survival time, dose: 20.0 mg/kg/injection, schedule: Q01DX009 (ip), vehicle: saline with Tween-80 94 % of control | [2] 95 % of control

COC(=O)C(CSCc1ccccc1)NC(=O)CCNC(=O)OCc1ccccc1 (configuration not stated)
inactive: endpoint: mean survival time, dose: 25.0 mg/kg/injection, schedule: Q01DX009 (ip), vehicle: Klucel (hydroxypropylcellulose) (HPC) 102 % of control | [14] 102 % of control | [15] 96 % of control | [16] 102 % of control | endpoint: mean survival time, dose: 400.0 mg/kg/injection, schedule: Q01DX009 (ip), vehicle: Klucel (hydroxypropylcellulose) (HPC) 86 % of control

S=C(S)NNc1ccccc1
inactive: [17] 91 % of control

CC1OC(n2cc(Br)c(=O)[nH]c2=O)C(O)C(O)C1O (configuration not stated)
inactive: endpoint: mean survival time, dose: 12.5 mg/kg/injection, schedule: Q01DX005 (ip), vehicle: water 99 % of control | endpoint: mean survival time, dose: 25.0 mg/kg/injection, schedule: Q01DX005 (ip), vehicle: water 101 % of control | endpoint: mean survival time, dose: 50.0 mg/kg/injection, schedule: Q01DX005 (ip), vehicle: water 105 % of control | endpoint: mean survival time, dose: 100.0 mg/kg/injection, schedule: Q01DX005 (ip), vehicle: water 100 % of control | endpoint: mean survival time, dose: 200.0 mg/kg/injection, schedule: Q01DX005 (ip), vehicle: water 99 % of control

CC(C)(C)OC1C2C=CC1C=C2 (configuration not stated)
inactive: [3] 100 % of control | [4] 91 % of control | [5] 88 % of control

CCn1c(N)c2c(ncn2Cc2ccccc2)nc1=S
inactive: endpoint: mean survival time, dose: 12.5 mg/kg/injection, schedule: Q01DX001 (ip), vehicle: acetone 100 % of control | endpoint: mean survival time, dose: 12.5 mg/kg/injection, schedule: Q04DX003 (ip), vehicle: saline with Tween-80 98 % of control | endpoint: mean survival time, dose: 25.0 mg/kg/injection, schedule: Q01DX001 (ip), vehicle: acetone 100 % of control | endpoint: mean survival time, dose: 25.0 mg/kg/injection, schedule: Q04DX003 (ip), vehicle: saline with Tween-80 98 % of control | endpoint: mean survival time, dose: 50.0 mg/kg/injection, schedule: Q01DX001 (ip), vehicle: acetone 103 % of control | endpoint: mean survival time, dose: 50.0 mg/kg/injection, schedule: Q04DX003 (ip), vehicle: saline with Tween-80 89 % of control

CCc1ccc(C#N)cc1O
inactive: [11] 102 % of control | endpoint: mean survival time, dose: 100.0 mg/kg/injection, schedule: Q04DX003 (ip), vehicle: saline with Tween-80 96 % of control | [12] 98 % of control | [17] 100 % of control | [18] 96 % of control | endpoint: mean survival time, dose: 400.0 mg/kg/injection, schedule: Q04DX003 (ip), vehicle: saline with Tween-80 100 % of control

Cc1ccc(S(=O)(=O)NC(=S)S)cc1
inactive: endpoint: mean survival time, dose: 12.5 mg/kg/injection, schedule: Q01DX009 (ip), vehicle: saline with Tween-80 102 % of control and 110 % of control | [13] 115 % of control and 103 % of control | [10] 110 % of control and 112 % of control | [11] 113 % of control and 103 % of control | [12] 105 % of control and 111 % of control | [18] 105 % of control and 109 % of control

ON=c1c2ccccc2oc2ccccc12
inactive: endpoint: mean survival time, dose: 100.0 mg/kg/injection, schedule: Q04DX002 (ip), vehicle: Klucel (hydroxypropylcellulose) (HPC) 92 % of control | endpoint: mean survival time, dose: 200.0 mg/kg/injection, schedule: Q04DX002 (ip), vehicle: Klucel (hydroxypropylcellulose) (HPC) 100 % of control

O=c1c2nccnc2nc2n1CCCCC2
inactive: [6] 100 % of control | [7] 103 % of control | endpoint: mean survival time, dose: 300.0 mg/kg/injection, schedule: Q01DX001 (ip), vehicle: saline 103 % of control

CN(C)c1ccc(OC(=O)c2cc3ccccc3cc2O)cc1
inactive: [14] 112 % of control | [15] 108 % of control | [16] 101 % of control
